Experimental data reported in patent publication US8143227B2, “Azithromycin for treatment of skin disorders” (priority 2008, dated 2012).
≈ marks a conversion by molar mass, not a printed value. Where two headings read alike, the source gives them in different places.

Legend:
inflammatory acne = details: 250 mg three times per week, cited from earlier work
[1] = test system: moderate to severe facial acne vulgaris; assay: Additional low dosage regimens, lesion counts; type: in vivo, human
Procedure: (§1) Five male subjects and five female subjects with moderate to severe facial acne vulgaris, having a mean age of 19.6 years, were treated either with 25 mg of oral azithromycin daily or with 80 mg of oral azithromycin every other day. Each of the ten subjects had acne nodules. The male subjects received the 25 mg per day regimen and the female subjects received the 80 mg every other day regimen. Treatment was continued for a duration of 6 weeks. The numbers of facial inflammatory lesions: papules, pustules, and nodules, and non-inflammatory lesions: open and closed comedones, were counted at the beginning of treatment and again after 3 weeks of treatment and after 6 weeks of treatment. Additionally, nodules were counted independently at each of these visits. Additionally, during the treatment study, each subject reported the occurrence of any adverse effects. The results of this study for the 25 mg/day regimen are shown in Table 7 and for the 80 mg every other day regiment in Table 8. In these tables, the numbers represent the mean number of lesions in the four subjects of each group. The % decrease from Day 0 was calculated as the mean of the differences for each of the parameters (inflammatory lesions, non-inflammatory lesion and nodules) for each individual subject on Day 21 and Day 42.

Streptococcus pyogenes = details: Neu 1991; cited from earlier work
[2] = Additional low dosage regimens, adverse effects; type: in vivo, human
Procedure: as §1, with “The” for “Five male subjects and five female subjects with moderate to severe facial acne vulgaris, having a mean age of 19.6 years, were treated either with 25 mg of oral azithromycin daily or with 80 mg of oral azithromycin every other day. Each of the ten subjects had acne nodules. The male subjects received the 25 mg per day regimen and the female subjects received the 80 mg every other day regimen. Treatment was continued for a duration of 6 weeks. The”

[3] = Gastrointestinal side effects monitoring; type: in vivo, human; details: 40, 80, or 120 mg/day; 42 days treatment plus 4 weeks after cessation
Excerpt: The subjects of Example 1 were monitored for the presence of gastrointestinal adverse effects during the six weeks (42 days) of treatment with the daily low-dose azithromycin of the invention and for an additional 4 weeks (total of 70 days) following cessation of treatment.

acne [4] = details: Elewski, cited from earlier work
acne [5] = details: 500 mg/day for 4 days in four cycles every 10 days; Gruber 1998; cited from earlier work
acne [6] = details: 500 mg three times per week; Kapadia 2004; cited from earlier work
[7] = Azithromycin levels in sebum (Sebutape patches); type: in vivo, human; details: for concentration at 42 day: human, sebum, oral
Procedure: Sebum was collected from the subjects of Example 1 by use of Sebutape® (CuDerm Corporation, Dallas Tex.). On study days 0, 21, 42, and 70, each subject placed three Sebutape® adhesive patches on each of the forehead, and left and right cheeks on the skin of the face and left the patches in place for 30 to 40 minutes. The patches were then removed, folded in half with the adhesive side inward, placed in a sealed glass vial, and frozen at −20° C. to −70° C. […] Each Sebutape® patch was analyzed for quantity in nanograms of azithromycin.

[8] = 25 mg/day for 6 weeks, male subjects, Day 0 (beginning of treatment)
[9] = 25 mg/day for 6 weeks, male subjects, Day 21
[10] = 25 mg/day for 6 weeks, male subjects, Day 42
[11] = 80 mg every other day for 6 weeks, female subjects, Day 0 (beginning of treatment)
[12] = 80 mg every other day for 6 weeks, female subjects, Day 21
[13] = 80 mg every other day for 6 weeks, female subjects, Day 42

In the case of `CC[C@H]1OC(=O)[C@H](C)[C@@H](O[C@H]2C[C@@](C)(OC)[C@@H](O)[C@H](C)O2)[C@H](C)[C@@H](O[C@@H]2O[C@H](C)C[C@H](N(C)C)[C@H]2O)[C@](C)(O)C[C@@H](C)CN(C)[C@H](C)[C@@H](O)[C@]1(C)O` [Azithromycin, 9-deoxo-9a-aza-9a-methyl-9a-homoerythromycin A], the “cases of gastrointestinal discomfort” value (inflammatory acne; 21 subjects) is given as 3 cases, the cases of vaginitis (inflammatory acne; 21 subjects) is given as “one” and the “subjects who experienced side effects” value (inflammatory acne; 21 subjects) is given as 19%. The “efficacy in treating lesions of inflammatory acne” value (inflammatory acne; Fernandez-Obregon 2000) was “as effective as other antibiotics tested”, the “effectiveness in treating skin disorders such as acne in adults” value ([1]; 25 mg per day, daily) was “effective” and the “Inflammatory lesions (mean number)” value [1, 8] was 37.4. For the same compound, the “Nodules (mean number)” value [1, 8] was 3.0, the “Non-inflammatory lesions (mean number)” value [1, 8] was 12.6 and the “Inflammatory lesions % Decrease from Day 0” value [1, 9] was 38.0%. The “Inflammatory lesions (mean number)” value [1, 9] was 22.8, the “Nodules % Decrease from Day 0” value [1, 9] was 45.0% and the “Nodules (mean number)” value [1, 9] was 1.6. For the same compound, the “Non-inflammatory lesions % Decrease from Day 0” value [1, 9] was 18.8%, the “Non-inflammatory lesions (mean number)” value [1, 9] was 10.2 and the “Inflammatory lesions % Decrease from Day 0” value [1, 10] was 41.0%. The “Inflammatory lesions (mean number)” value [1, 10] was 22.0, the “Nodules % Decrease from Day 0” value [1, 10] was 58.3% and the “Nodules (mean number)” value [1, 10] was 1.2. For the same compound, the “Non-inflammatory lesions % Decrease from Day 0” value [1, 10] was 34.3%, the “Non-inflammatory lesions (mean number)” value [1, 10] was 8.4 and the “effectiveness in treating skin disorders such as acne” value ([1]; 80 mg every other day) was “effective”. The “Inflammatory lesions (mean number)” value [1, 11] was 24.4, the “Nodules (mean number)” value [1, 11] was 3.8 and the “Non-inflammatory lesions (mean number)” value [1, 11] was 48.6. The “Inflammatory lesions % Decrease from Day 0” value [1, 12] was 34.0%, the “Inflammatory lesions (mean number)” value [1, 12] was 16.0 and the “Nodules % Decrease from Day 0” value [1, 12] was 76.0%. The “Nodules (mean number)” value [1, 12] was 1.0, the “Non-inflammatory lesions % Decrease from Day 0” value [1, 12] was 18.5% and the “Non-inflammatory lesions (mean number)” value [1, 12] was 41.2. The “Inflammatory lesions % Decrease from Day 0” value [1, 13] was 15.5%, the “Inflammatory lesions (mean number)” value [1, 13] was 20.4 and the “Nodules % Decrease from Day 0” value [1, 13] was 58.0%. For the same compound, the “Nodules (mean number)” value [1, 13] was 1.8, the “Non-inflammatory lesions % Decrease from Day 0” value [1, 13] was 30.1% and the “Non-inflammatory lesions (mean number)” value [1, 13] was 31.6. For the same compound, the “MIC90 against Streptococcus pyogenes” value (Streptococcus pyogenes) was 0.12 µg/mL (≈ 0.16 µM), the adverse effects reported ([2]; 25 mg per day for 6 weeks, migraine headache on day 21, deemed not related) was “only one adverse effect was reported” and the “typical antibiotic side effects (abdominal cramping, nausea, vomiting, diarrhea or vaginitis)” value ([2]; 25 mg per day or 80 mg every other day for 6 weeks) was “no typical antibiotic side effects reported”. The adverse effects reported ([2]; 80 mg every other day for 6 weeks) was “no adverse effects were reported”, the gastrointestinal side effects [3] was “no gastrointestinal side effects were reported” and the improvement in acne (acne [4]; 500 mg day 1, then 250 mg/day for 4 days, from 1st and 15th of each month, 3 months) was “all patients treated with this azithromycin regimen showed improvement”. The “subjects who experienced gastrointestinal side effects” value (acne [4]; same regimen) was “only one of twenty subjects”, the “efficacy in the treatment of acne” value (acne [5]) was “efficacious” and the “gastrointestinal side effect rate” value (acne [5]) was “about 10%”. For the same compound, the “subjects with adverse events” value (acne [6]) was 11%, the treatment of acne (acne [6]) was “successful treatment” and the “Sebum Concentration (median) ng per sample” value ([7]; 40 mg/day, Day 0) was 0.00 ng per sample. For the same compound, the “Sebum Concentration (median)” value ([7]; 40 mg/day, Day 0, ng per sample divided by 1.38 mg) was “.00 ng/mg”, the “Sebum Concentration (median)” value ([7]; 40 mg/day, Day 0, ng/mg times […]) was “.00 ng/µL” and the “Sebum Concentration (median) ng per sample” value ([7]; 40 mg/day, Day 21) was 0.00 ng per sample. For the same compound, the “Sebum Concentration (median)” value ([7]; 40 mg/day, Day 21, ng per sample divided by 1.38 mg) was “.00 ng/mg”, the “Sebum Concentration (median)” value ([7]; 40 mg/day, Day 21, ng/mg times […]) was “.00 ng/µL” and the “Sebum Concentration (median) ng per sample” value ([7]; 40 mg/day, Day 42) was 0.19 ng per sample. The “Sebum Concentration (median)” value ([7]; 40 mg/day, Day 42, ng per sample divided by 1.38 mg) was “.14 ng/mg”, the “Sebum Concentration (median)” value ([7]; 40 mg/day, Day 42, ng/mg times […]) was “.12 ng/µL” and the “Sebum Concentration (median) ng per sample” value ([7]; 40 mg/day, Day 70 (28 days after last dose)) was 0.00 ng per sample. The “Sebum Concentration (median)” value ([7]; 40 mg/day, Day 70, ng per sample divided by 1.38 mg) was “.00 ng/mg”, the “Sebum Concentration (median)” value ([7]; 40 mg/day, Day 70, ng/mg times […]) was “.00 ng/µL” and the “Sebum Concentration (median) ng per sample” value ([7]; 80 mg/day, Day 0) was 0.00 ng per sample. For the same compound, the “Sebum Concentration (median)” value ([7]; 80 mg/day, Day 0, ng per sample divided by 1.38 mg) was “.00 ng/mg”, the “Sebum Concentration (median)” value ([7]; 80 mg/day, Day 0, ng/mg times […]) was “.00 ng/µL” and the “Sebum Concentration (median) ng per sample” value ([7]; 80 mg/day, Day 21) was 0.79 ng per sample. For the same compound, the “Sebum Concentration (median)” value ([7]; 80 mg/day, Day 21, ng per sample divided by 1.38 mg) was “.57 ng/mg”, the “Sebum Concentration (median)” value ([7]; 80 mg/day, Day 21, ng/mg times […]) was “.50 ng/µL” and the “Sebum Concentration (median) ng per sample” value ([7]; 80 mg/day, Day 42) was 0.84 ng per sample. The “Sebum Concentration (median)” value ([7]; 80 mg/day, Day 42, ng per sample divided by 1.38 mg) was “.61 ng/mg”, the “Sebum Concentration (median)” value ([7]; 80 mg/day, Day 42, ng/mg times […]) was “.53 ng/µL” and the “Sebum Concentration (median) ng per sample” value ([7]; 80 mg/day, Day 70 (28 days after last dose)) was 0.00 ng per sample. For the same compound, the “Sebum Concentration (median)” value ([7]; 80 mg/day, Day 70, ng per sample divided by 1.38 mg) was “.00 ng/mg”, the “Sebum Concentration (median)” value ([7]; 80 mg/day, Day 70, ng/mg times […]) was “.00 ng/µL” and the “Sebum Concentration (median) ng per sample” value ([7]; 120 mg/day, Day 0) was 0.00 ng per sample. For the same compound, the “Sebum Concentration (median)” value ([7]; 120 mg/day, Day 0, ng per sample divided by 1.38 mg) was “.00 ng/mg”, the “Sebum Concentration (median)” value ([7]; 120 mg/day, Day 0, ng/mg times […]) was “.00 ng/µL” and the “Sebum Concentration (median) ng per sample” value ([7]; 120 mg/day, Day 21) was 0.76 ng per sample. The “Sebum Concentration (median)” value ([7]; 120 mg/day, Day 21, ng per sample divided by 1.38 mg) was “.55 ng/mg”, the “Sebum Concentration (median)” value ([7]; 120 mg/day, Day 21, ng/mg times […]) was “.48 ng/µL” and the “Sebum Concentration (median) ng per sample” value ([7]; 120 mg/day, Day 42) was 0.88 ng per sample. The “Sebum Concentration (median) ng per sample” value ([7]; 120 mg/day, Day 42, listed as azithromycin) was “about 0.88 ng per sample”, the “Sebum Concentration (median)” value ([7]; 120 mg/day, Day 42, ng per sample divided by 1.38 mg) was “.64 ng/mg” and the “Sebum Concentration (median)” value ([7]; 120 mg/day, Day 42, ng/mg times […]) was “.55 ng/µL”. The “Sebum Concentration (median) ng per sample” value ([7]; 120 mg/day, Day 70 (28 days after last dose)) was 0.00 ng per sample, the “Sebum Concentration (median)” value ([7]; 120 mg/day, Day 70, ng per sample divided by 1.38 mg) was “.00 ng/mg” and the “Sebum Concentration (median)” value ([7]; 120 mg/day, Day 70, ng/mg times […]) was “.00 ng/µL”. For the same compound, the concentration at 42 day ([7]; 120 mg/day, Day 42, ng per sample divided by 1.38 mg, read-out: Sebum Concentration (median) ng/mg) was ~640 ng/g and the concentration at 42 day ([7]; 120 mg/day, Day 42, ng/mg times 0.87 mg/μl, read-out: Sebum Concentration (median)) was ~550 ng/mL.
